Tests used:
Assay type in all cases: cell-based, medaka (Oryzias latipes)
[1] = test system: somatolactin (sl) gene expression; assay: Ex vivo pituitary organ culture, real-time PCR of sl; details: for sl expression (in words): 10^-5 M, 24 h, 25 °C, vs vehicle
Text: (§1) Fig. 8 Pacap and Vip have pleiotropic effects on the expression of anterior pituitary hormones. The effects of Pacap and Vip on gene expression levels of follicle-stimulating hormone β subunit (fshb), luteinizing hormone β subunit (lhb), thyroid-stimulating hormone β subunit (tshb), growth hormone (gh), somatolactin (sl), prolactin (prl), and pro-opiomelanocortin (pomc) were investigated by using male and female pituitaries cultured ex vivo (n = 6 per group, except male pituitary supplemented with Vip, where n = 5). Data were expressed as means with error bars representing standard error of the mean. Statistical differences were assessed by Dunnett’s post-hoc test. *p < 0.05; **p < 0.01; ***p < 0.001.
(§2) The pituitaries from five male or female fish were pooled for each sample and cultured ex vivo in Leibovitz’s L-15 medium supplemented with 5% charcoal-stripped fetal bovine serum as described elsewhere. The medium was further supplemented with 10^−5 M medaka Pacap or Vip, or vehicle alone. After 24 h of culture at 25 °C, the pituitaries were processed for total RNA extraction and cDNA synthesis by using the RNeasy Plus Micro Kit (Qiagen) and SuperScript VILO cDNA Synthesis Kit (Thermo Fisher Scientific), respectively. Real-time PCR was performed on the LightCycler 480 System II using LightCycler 480 SYBR Green I Master (Roche Diagnostics). The cycle conditions were: 95 °C for 5 min followed by 45 cycles of 95 °C for 10 sec, 60 °C for 10 sec and 72 °C for 10 sec. Melting curve analysis was performed as described above. Data were normalized to the geometric mean of three reference genes, actb, gapdh (encoding glyceraldehyde-3-phosphate dehydrogenase; National BioResource Project (NBRP) Medaka clone ID olbrno9_f15) and rpl13 (encoding ribosomal protein L13; NBRP Medaka clone ID olovano51_b24), according to Vandesompele et al.[63]. The primers used for real-time PCR are listed in Supplementary Table 3.

[2] = test system: growth hormone (gh) gene expression; assay: Ex vivo pituitary organ culture, real-time PCR of gh; details: for gh expression (in words): 10^-5 M, 24 h, 25 °C, vs vehicle
Text: as §1, §2

[3] = test system: follicle-stimulating hormone β subunit (fshb) gene expression; assay: Ex vivo pituitary organ culture, real-time PCR of fshb;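 on fshb expression (Fig. 8, fshb): relative expression with female control samples set to 1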
Text: as §1, §2

[4] = test system: thyroid-stimulating hormone β subunit (tshb) gene expression; assay: Ex vivo pituitary organ culture, real-time PCR of tshb; details: for tshb expression (in words): 10^-5 M, 24 h, 25 °C, vs vehicle
Text: as §1, §2

[5] = test system: pro-opiomelanocortin (pomc) gene expression; assay: Ex vivo pituitary organ culture, real-time PCR of pomc;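 on pomc expression (Fig. 8, pomc): relative expression with female control samples set to 1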
Text: as §1, §2

[6] = test system: prolactin (prl) gene expression; assay: Ex vivo pituitary organ culture, real-time PCR of prl; details: for prl expression (in words): 10^-5 M, 24 h, 25 °C, vs vehicle
Text: as §1, §2

In the case of “Pituitary adenylate cyclase-activating polypeptide [Pacap]”, the “sl expression (in words)” value ([1]; female pituitaries) is reported as “substantially increased”, the “sl expression (Fig. 8, sl)” value ([1]; female, replicate 1) is reported as 5.138 and the “sl expression (Fig. 8, sl)” value ([1]; female, replicate 2) is reported as 3.103. For the same substance, the “sl expression (Fig. 8, sl)” value ([1]; female, replicate 3) was 4.426, the “sl expression (Fig. 8, sl)” value ([1]; female, replicate 4) was 3.042 and the “sl expression (Fig. 8, sl)” value ([1]; female, replicate 5) was 2.318. For the same substance, the “sl expression (Fig. 8, sl)” value ([1]; female, replicate 6) was 4.074, the “sl expression (in words)” value ([1]; male pituitaries) was “substantially increased” and the “sl expression (Fig. 8, sl)” value ([1]; male, replicate 1) was 1.710. The “sl expression (Fig. 8, sl)” value ([1]; male, replicate 2) was 1.255, the “sl expression (Fig. 8, sl)” value ([1]; male, replicate 3) was 1.415 and the “sl expression (Fig. 8, sl)” value ([1]; male, replicate 4) was 1.513. The “sl expression (Fig. 8, sl)” value ([1]; male, replicate 5) was 0.886, the “sl expression (Fig. 8, sl)” value ([1]; male, replicate 6) was 2.724 and the “gh expression (in words)” value ([2]; female pituitaries) was “no significant effects”. The “gh expression (Fig. 8, gh)” value ([2]; female, replicate 1) was 0.960, the “gh expression (Fig. 8, gh)” value ([2]; female, replicate 2) was 0.795 and the “gh expression (Fig. 8, gh)” value ([2]; female, replicate 3) was 0.779. For the same substance, the “gh expression (Fig. 8, gh)” value ([2]; female, replicate 4) was 0.968, the “gh expression (Fig. 8, gh)” value ([2]; female, replicate 5) was 0.957 and the “gh expression (Fig. 8, gh)” value ([2]; female, replicate 6) was 1.344. For the same substance, the “gh expression (in words)” value ([2]; male pituitaries) was “no significant effects”, the “gh expression (Fig. 8, gh)” value ([2]; male, replicate 1) was 0.248 and the “gh expression (Fig. 8, gh)” value ([2]; male, replicate 2) was 0.325. For the same substance, the “gh expression (Fig. 8, gh)” value ([2]; male, replicate 3) was 0.488, the “gh expression (Fig. 8, gh)” value ([2]; male, replicate 4) was 0.330 and the “gh expression (Fig. 8, gh)” value ([2]; male, replicate 5) was 0.376. The “gh expression (Fig. 8, gh)” value ([2]; male, replicate 6) was 0.724, the “fshb expression (in words)” value ([3]; female pituitaries, 10^-5 M, 24 h, 25 °C, vs vehicle) was “significantly reduced” and the “fshb expression (Fig. 8, fshb)” value ([3]; female, replicate 1) was 0.383. For the same substance, the “fshb expression (Fig. 8, fshb)” value ([3]; female, replicate 2) was 0.806, the “fshb expression (Fig. 8, fshb)” value ([3]; female, replicate 3) was 0.807 and the “fshb expression (Fig. 8, fshb)” value ([3]; female, replicate 4) was 0.427. For the same substance, the “fshb expression (Fig. 8, fshb)” value ([3]; female, replicate 5) was 0.650, the “fshb expression (Fig. 8, fshb)” value ([3]; female, replicate 6) was 0.545 and the “fshb expression (Fig. 8, fshb)” value ([3]; male, replicate 1) was 0.173. For the same substance, the “fshb expression (Fig. 8, fshb)” value ([3]; male, replicate 2) was 0.236, the “fshb expression (Fig. 8, fshb)” value ([3]; male, replicate 3) was 0.293 and the “fshb expression (Fig. 8, fshb)” value ([3]; male, replicate 4) was 0.230. For the same substance, the “fshb expression (Fig. 8, fshb)” value ([3]; male, replicate 5) was 0.290, the “fshb expression (Fig. 8, fshb)” value ([3]; male, replicate 6) was 0.452 and the “tshb expression (in words)” value ([4]; female pituitaries) was “no significant effects”. For the same substance, the “tshb expression (Fig. 8, tshb)” value ([4]; female, replicate 1) was 0.514, the “tshb expression (Fig. 8, tshb)” value ([4]; female, replicate 2) was 0.485 and the “tshb expression (Fig. 8, tshb)” value ([4]; female, replicate 3) was 0.534. The “tshb expression (Fig. 8, tshb)” value ([4]; female, replicate 4) was 0.502, the “tshb expression (Fig. 8, tshb)” value ([4]; female, replicate 5) was 0.686 and the “tshb expression (Fig. 8, tshb)” value ([4]; female, replicate 6) was 0.387. The “tshb expression (in words)” value ([4]; male pituitaries) was “no significant effects”, the “tshb expression (Fig. 8, tshb)” value ([4]; male, replicate 1) was 0.207 and the “tshb expression (Fig. 8, tshb)” value ([4]; male, replicate 2) was 0.364. For the same substance, the “tshb expression (Fig. 8, tshb)” value ([4]; male, replicate 3) was 1.165, the “tshb expression (Fig. 8, tshb)” value ([4]; male, replicate 4) was 0.157 and the “tshb expression (Fig. 8, tshb)” value ([4]; male, replicate 5) was 2.250. The “tshb expression (Fig. 8, tshb)” value ([4]; male, replicate 6) was 0.895, the “pomc expression (Fig. 8, pomc)” value ([5]; female, replicate 1) was 1.650 and the “pomc expression (Fig. 8, pomc)” value ([5]; female, replicate 2) was 0.962. The “pomc expression (Fig. 8, pomc)” value ([5]; female, replicate 3) was 1.174, the “pomc expression (Fig. 8, pomc)” value ([5]; female, replicate 4) was 1.174 and the “pomc expression (Fig. 8, pomc)” value ([5]; female, replicate 5) was 1.328. The “pomc expression (Fig. 8, pomc)” value ([5]; female, replicate 6) was 1.116, the “pomc expression (in words)” value ([5]; male pituitaries, 10^-5 M, 24 h, 25 °C, vs vehicle) was “reduced” and the “pomc expression (Fig. 8, pomc)” value ([5]; male, replicate 1) was 5.882. For the same substance, the “pomc expression (Fig. 8, pomc)” value ([5]; male, replicate 2) was 3.434, the “pomc expression (Fig. 8, pomc)” value ([5]; male, replicate 3) was 4.022 and the “pomc expression (Fig. 8, pomc)” value ([5]; male, replicate 4) was 3.555. The “pomc expression (Fig. 8, pomc)” value ([5]; male, replicate 5) was 1.951, the “pomc expression (Fig. 8, pomc)” value ([5]; male, replicate 6) was 4.484 and the “prl expression (in words)” value ([6]; female pituitaries) was “substantially increased”. The “prl expression (Fig. 8, prl)” value ([6]; female, replicate 1) was 3.510, the “prl expression (Fig. 8, prl)” value ([6]; female, replicate 2) was 4.473 and the “prl expression (Fig. 8, prl)” value ([6]; female, replicate 3) was 4.149. For the same substance, the “prl expression (Fig. 8, prl)” value ([6]; female, replicate 4) was 4.897, the “prl expression (Fig. 8, prl)” value ([6]; female, replicate 5) was 3.291 and the “prl expression (Fig. 8, prl)” value ([6]; female, replicate 6) was 4.279. The “prl expression (in words)” value ([6]; male pituitaries) was “substantially increased”, the “prl expression (Fig. 8, prl)” value ([6]; male, replicate 1) was 1.555 and the “prl expression (Fig. 8, prl)” value ([6]; male, replicate 2) was 3.928. The “prl expression (Fig. 8, prl)” value ([6]; male, replicate 3) was 2.640, the “prl expression (Fig. 8, prl)” value ([6]; male, replicate 4) was 1.612 and the “prl expression (Fig. 8, prl)” value ([6]; male, replicate 5) was 3.371. For the same substance, the “prl expression (Fig. 8, prl)” value ([6]; male, replicate 6) was 6.401.

Source: publication PMC8352984, “Estrogen mediates sex differences in preoptic neuropeptide and pituitary hormone production in medaka” (Communications Biology, 2021)
